Holding throughout (format): cell-based
The test system of experiment [1] is hepatocellular carcinoma cell line Hep3B. As to the kind of experiment: Growth inhibition of Hep3B cells, 48 hr treatment, Hoechst 33342 nucleus count (GE InCell 2200). To be noted: Homo sapiens. Summed up:
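Compound exposure lasted 48 hr at 37° C, 5% CO2. Surviving nuclei were counted after Hoechst 33342 staining, and survival was expressed as the treated/non-treated cell number ratio, including the ratio at 10 μM compound.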

Experiment [2] has as its system Hep3B hepatocellular carcinoma cell line. Briefly: MTS cell viability assay (NCI-60 methodology), GI50/LC50, Hep3B. To be noted: Homo sapiens, 48 h, Hep3B cells, 2 days incubation with compound. As for the experimental part:
(§1) The number of treated cells was determined by GE InCell 2200 system, and treated cells were stained with Hoechst 33342 which can reveal the remained nucleus in culture plate. The proportion of survival cells then were calculated with the ratio of treated/non-treated cells. The growth inhibition/cytotoxic effect of selected compounds were evaluated by the following protocol of NCI-60 screening platform. The human tumor cell lines are plating on a 96 well plate in a fixed density 24 hr prior compound treatment. Compounds with multiple concentrations are then added into each well for further 48 hr incubation. Cell viability is assessed by MTS method and the potency of compound is represented by GI50 and LC50 calculated by MTS result.
(§2) The cell viability measurement is based on the NCI-60 screening methodology (Nat. Rev. Cancer 6, 813-823, 2006). Briefly, cells are inoculated into 96-well plates at the optimal plating density. After 24 h, one of the two plates for each cell line is processed to determine a time zero cell viability (Tz) by MTS assay (Promega). Compounds are added over a 2-fold serial dilution to provide a total five drug concentrations plus DMSO control. Plates are incubated for a further 2 days, then measured cell viability by MTS assay [control growth (C) and test growth in the presence of drug at the five concentration levels (Ti)]. Growth inhibition of 50% (GI50) is calculated from [(Ti−Tz)/(C−Tz)]×100=50, which is the drug concentration resulting in a 50% reduction of control cells during the drug incubation. The LC50 is calculated from [(Ti−Tz)/Tz]×100=−50, which is the drug concentration resulting in a 50% reduction at the end of the drug treatment as compared to that at the beginning.
(§3) Herein, Hep3B refers to hepatocellular carcinoma cell line, SW480 refers to colon adenocarcinoma cell line, and NCI-H460 refers to human lung cancer cell line.

The subject of experiment [3] is SW480 colon adenocarcinoma cell line. As to the kind of experiment: MTS cell viability assay (NCI-60 methodology), GI50/LC50, SW480. To be noted: Homo sapiens, 48 h, SW480 cells, 2 days incubation with compound. The procedure: as §1, §2, §3
In experiment [4] the test system is NCI-H460 human lung cancer cell line. As to the kind of experiment: MTS cell viability assay (NCI-60 methodology), GI50/LC50, NCI-H460. To be noted: 48 h, NCI-H460 cells, 2 days incubation with compound. The procedure:
as §1, §2, §3
(In general: Tetrazolium assays rely on reduction of a dye to a coloured formazan, in cell work by metabolically active cells.)

The mark [5] stands for this setting: Table 5, ratio of number of tumor cells treated with 10 μM compound to non-treated cells.
The mark [6] stands for this setting: Table 6, ratio of number of tumor cells treated with 10 μM compound to non-treated cells.

Molecules are shown by their SMILES.

For orientation: viability means a per cent measure of how many cells are alive, often set against a control. Broadly, the GI50 is the concentration at which growth is held to half of that of the control. By LC50 is commonly meant the concentration that kills 50% of the test population. In the case of `CCCCOc1ccc(Oc2sc(NC(=O)c3ccc([N+](=O)[O-])s3)nc2-c2ccc(F)cc2)cc1` [Compound 5-66, N-(5-(4-butoxyphenoxy)-4-(4-fluorophenyl)thiazol-2-yl)-5-nitrothiophene-2-carboxamide], in experiment [1] (setting [5]), the viability at 10 µM is 43%. In addition, in experiment [2], the concentration for 50% growth inhibition (GI50) came to 520 nM and the LC50 amounted to 760 nM. Further, in experiment [3], the GI50 was 950 nM and the LC50 (NCI-60 lethal concentration, 50% net cell loss vs time zero) stood at 2810 nM. Besides, in experiment [4], the concentration for 50% growth inhibition (GI50) was 390 nM and the LC50 (concentration giving 50% net cell loss versus time zero, NCI-60 definition) was 1130 nM.

Turning to `O=C(Nc1nc(-c2ccc(Br)cc2)c(Oc2cccc(C(F)(F)F)c2)s1)c1ccc([N+](=O)[O-])s1` [Compound 5-11, N-(4-(4-bromophenyl)-5-(3-(trifluoromethyl)phenoxy)thiazol-2-yl)-5-nitrothiophene-2-carboxamide], the viability at 10 µM in experiment [1] (setting [5]) stood at 21%. In addition, the values for the GI50 in experiment [2], in experiment [3] and in experiment [4] were 6540 nM, 7040 nM and 630 nM, respectively. For the same compound, the LC50 (concentration giving 50% net cell loss versus time zero, NCI-60 definition) in experiment [4] was 3980 nM.

For `CCCCCOc1ccc(-c2nc(NC(=O)c3ccc([N+](=O)[O-])s3)sc2Oc2ccccc2)cc1` [Compound 5-76, 5-nitro-N-(4-(4-(pentyloxy)phenyl)-5-phenoxythiazol-2-yl)thiophene-2-carboxamide], the viability at 10 µM in experiment [1] (setting [5]) turned out to be 38%. Moreover, in experiment [2], the GI50 was found to be 560 nM and the 50% lethal concentration (LC50) was 1720 nM. Also, in experiment [3], the 50% growth inhibitory concentration (GI50) was 1270 nM and the LC50 (NCI-60 lethal concentration, 50% net cell loss vs time zero) was 5820 nM. Further, in experiment [4], the GI50 worked out at 740 nM and the LC50 (concentration giving 50% net cell loss versus time zero, NCI-60 definition) was found to be 1520 nM.

For `CCCCc1ccc(-c2nc(NC(=O)c3ccc([N+](=O)[O-])s3)sc2Oc2ccccc2F)cc1` [Compound 5-80, N-(4-(4-butylphenyl)-5-(2-fluorophenoxy)thiazol-2-yl)-5-nitrothiophene-2-carboxamide], in experiment [1] (setting [5]), the viability at 10 µM amounted to 26%. In experiment [2], the concentration for 50% growth inhibition (GI50) is 680 nM and the median lethal concentration (LC50) worked out at 1280 nM. Moreover, in experiment [3], the 50% growth inhibitory concentration (GI50) came to 1460 nM and the LC50 (NCI-60 lethal concentration, 50% net cell loss vs time zero) was 4170 nM. Further, in experiment [4], the GI50 came to 840 nM and the LC50 (concentration giving 50% net cell loss versus time zero, NCI-60 definition) is 1750 nM.

In the case of `CC(C)(C)c1ccc(-c2nc(NC(=O)c3ccc([N+](=O)[O-])s3)sc2-c2ccc(Cl)cc2)cc1` [Compound 6-59, N-(4-(4-(tert-butyl)phenyl)-5-(4-chlorophenyl)thiazol-2-yl)-5-nitrothiophene-2-carboxamide], the viability at 10 µM in experiment [1] (setting [6]) came to 27%. In addition, in experiment [2], the 50% growth inhibitory concentration (GI50) stood at 600 nM and the LC50 was found to be 640 nM. Also, in experiment [3], the GI50 was found to be 750 nM and the LC50 (NCI-60 lethal concentration, 50% net cell loss vs time zero) stood at 1620 nM. In experiment [4], the 50% growth inhibitory concentration (GI50) worked out at 700 nM and the LC50 (concentration giving 50% net cell loss versus time zero, NCI-60 definition) stood at 1280 nM.

In the case of `O=C(Nc1nc(-c2ccc(F)cc2)c(Oc2ccccc2OC(F)(F)F)s1)c1ccc([N+](=O)[O-])s1` [Compound 5-32, N-(4-(4-fluorophenyl)-5-(2-(trifluoromethoxy)phenoxy)thiazol-2-yl)-5-nitrothiophene-2-carboxamide], in experiment [1] (setting [5]), the viability at 10 µM came out at 48%. Besides, in experiment [2], the concentration for 50% growth inhibition (GI50) is 460 nM and the median lethal concentration (LC50) was determined as 2170 nM. Also, in experiment [3], the GI50 is 400 nM and the LC50 (NCI-60 lethal concentration, 50% net cell loss vs time zero) was 2260 nM. In experiment [4], the GI50 came to 690 nM and the LC50 (concentration giving 50% net cell loss versus time zero, NCI-60 definition) came out at 1730 nM.

For `CCC(C)(C)c1ccc(-c2nc(NC(=O)c3ccc([N+](=O)[O-])s3)sc2Oc2ccc(F)cc2)cc1` [Compound 5-63, N-(5-(4-fluorophenoxy)-4-(4-(tert-pentyl)phenyl)thiazol-2-yl)-5-nitrothiophene-2-carboxamide], the viability at 10 µM in experiment [1] (setting [5]) came to 37%. In experiment [2], the GI50 amounted to 430 nM and the 50% lethal concentration (LC50) came out at 950 nM. Further, in experiment [3], the GI50 was 880 nM and the LC50 (NCI-60 lethal concentration, 50% net cell loss vs time zero) is 1850 nM. In addition, in experiment [4], the GI50 was 680 nM and the LC50 (concentration giving 50% net cell loss versus time zero, NCI-60 definition) was determined as 1110 nM.

In the case of `CCCOc1ccc(-c2nc(NC(=O)c3ccc([N+](=O)[O-])s3)sc2Oc2cccc(C(F)(F)F)c2)cc1` [Compound 5-17, 5-nitro-N-(4-(4-propoxyphenyl)-5-(3-(trifluoromethyl)phenoxy)thiazol-2-yl)thiophene-2-carboxamide], the viability at 10 µM in experiment [1] (setting [5]) was found to be 37%. In addition, in experiment [2], the concentration for 50% growth inhibition (GI50) stood at 300 nM and the 50% lethal concentration (LC50) was found to be 1600 nM. Moreover, in experiment [3], the GI50 is 1260 nM and the LC50 (NCI-60 lethal concentration, 50% net cell loss vs time zero) is 2410 nM. Further, in experiment [4], the GI50 was determined as 1160 nM and the LC50 (concentration giving 50% net cell loss versus time zero, NCI-60 definition) came to 2290 nM.

Regarding `CCCOc1ccc(-c2nc(NC(=O)c3ccc([N+](=O)[O-])s3)sc2Oc2ccc(C(F)(F)F)cc2Cl)cc1` [Compound 5-38, N-(5-(2-chloro-4-(trifluoromethyl)phenoxy)-4-(4-propoxyphenyl)thiazol-2-yl)-5-nitrothiophene-2-carboxamide], the viability at 10 µM in experiment [1] (setting [5]) was found to be 41%. Also, in experiment [2], the GI50 was determined as 370 nM and the median lethal concentration (LC50) was determined as 1710 nM. For the same compound, in experiment [3], the concentration for 50% growth inhibition (GI50) came out at 770 nM and the LC50 (NCI-60 lethal concentration, 50% net cell loss vs time zero) is 3220 nM. For the same compound, in experiment [4], the concentration for 50% growth inhibition (GI50) came out at 570 nM and the LC50 (concentration giving 50% net cell loss versus time zero, NCI-60 definition) came to 1430 nM.

Turning to `CCCOc1ccc(-c2nc(NC(=O)c3ccc([N+](=O)[O-])s3)sc2Oc2ccc(Br)cc2)cc1` [Compound 5-27, N-(5-(4-bromophenoxy)-4-(4-propoxyphenyl)thiazol-2-yl)-5-nitrothiophene-2-carboxamide], the viability at 10 µM in experiment [1] (setting [5]) is 31%. Besides, in experiment [2], the GI50 came out at 820 nM and the 50% lethal concentration (LC50) stood at 1510 nM. In experiment [3], the GI50 turned out to be 1230 nM and the LC50 (NCI-60 lethal concentration, 50% net cell loss vs time zero) was 4870 nM. Also, in experiment [4], the GI50 came out at 1960 nM and the LC50 (concentration giving 50% net cell loss versus time zero, NCI-60 definition) turned out to be 4740 nM.

For the compound `CC(C)(C)c1ccc(-c2nc(NC(=O)c3ccc([N+](=O)[O-])s3)sc2Oc2cccc(F)c2)cc1` [Compound 5-22, N-(4-(4-(tert-butyl)phenyl)-5-(3-fluorophenoxy)thiazol-2-yl)-5-nitrothiophene-2-carboxamide], in experiment [1] (setting [5]), the viability at 10 µM is 30%. Moreover, in experiment [2], the GI50 was determined as 1430 nM and the LC50 came to 4030 nM. Moreover, in experiment [3], the GI50 turned out to be 2500 nM and the LC50 (NCI-60 lethal concentration, 50% net cell loss vs time zero) was 4270 nM. For the same compound, in experiment [4], the concentration for 50% growth inhibition (GI50) stood at 2090 nM and the LC50 (concentration giving 50% net cell loss versus time zero, NCI-60 definition) was 4530 nM.

`O=C(Nc1nc(-c2ccc(Br)cc2)c(Oc2ccccc2C(F)(F)F)s1)c1ccc([N+](=O)[O-])s1` [Compound 5-19, N-(4-(4-bromophenyl)-5-(2-(trifluoromethyl)phenoxy)thiazol-2-yl)-5-nitrothiophene-2-carboxamide]: in experiment [1] (setting [5]), the viability at 10 µM worked out at 62%. In experiment [2], the 50% growth inhibitory concentration (GI50) worked out at 1790 nM and the median lethal concentration (LC50) was found to be 3910 nM. Also, in experiment [3], the GI50 was found to be 1510 nM and the LC50 (NCI-60 lethal concentration, 50% net cell loss vs time zero) worked out at 3940 nM. Further, the concentration for 50% growth inhibition (GI50) in experiment [4] worked out at 2880 nM.

Regarding `CCCOc1ccc(-c2nc(NC(=O)c3ccc([N+](=O)[O-])s3)sc2Oc2ccc(C(F)(F)F)cc2)cc1` [Compound 5-26, 5-nitro-N-(4-(4-propoxyphenyl)-5-(4-(trifluoromethyl)phenoxy)thiazol-2-yl)thiophene-2-carboxamide], the viability at 10 µM in experiment [1] (setting [5]) is 24%. In experiment [2], the GI50 was 830 nM and the LC50 was determined as 1180 nM. In experiment [3], the GI50 amounted to 1050 nM and the LC50 (NCI-60 lethal concentration, 50% net cell loss vs time zero) stood at 3440 nM. For the same compound, in experiment [4], the GI50 turned out to be 1150 nM and the LC50 (concentration giving 50% net cell loss versus time zero, NCI-60 definition) was 3200 nM.

Consider `CC(C)(C)c1ccc(-c2nc(NC(=O)c3ccc([N+](=O)[O-])s3)sc2-c2ccc(F)c(F)c2)cc1` [Compound 6-46, N-(4-(4-(tert-butyl)phenyl)-5-(3,4-difluorophenyl)thiazol-2-yl)-5-nitrothiophene-2-carboxamide], for which, in experiment [1] (setting [6]), the viability at 10 µM was 31%. Besides, in experiment [2], the GI50 was found to be 590 nM and the LC50 worked out at 1100 nM. Moreover, in experiment [3], the 50% growth inhibitory concentration (GI50) was 680 nM and the LC50 (NCI-60 lethal concentration, 50% net cell loss vs time zero) worked out at 1330 nM. In experiment [4], the GI50 is 630 nM and the LC50 (concentration giving 50% net cell loss versus time zero, NCI-60 definition) worked out at 900 nM.

Values taken from patent US11174253B2, “Compound and pharmaceutical composition containing the same” (ALPHALA CO., LTD., priority 2017, dated 2021).
